Measurements published in patent publication US8252799B2, “Hexahydro-1H-4,7-methanoisoindole-1,3-dione compounds” (Merck Sharp & Dohme Corp., priority 2007, dated 2012).

Key:
5HT2C [1] = molecular target: T1, 5HT2C (Homo sapiens, UniProt P28335); assay: In Vitro Affinity (Ki) on Human Receptors: 5HT2C; format: binding; conditions: human receptor
D1 [2] = molecular target: T2, D1 (Homo sapiens, UniProt P21728); assay: Functional Potency (IC50) on Human Receptors: D1; format: biochemical; conditions: human receptor
5HT2C [3] = molecular target: T1, 5HT2C; assay: Functional Potency (IC50) on Human Receptors: 5HT2C; format: biochemical; conditions: human receptor
α2C [4] = molecular target: T3, α2C (Homo sapiens, UniProt P18825); assay: Functional Potency (IC50) on Human Receptors: α2C; format: biochemical; conditions: human receptor
T3 sequence (P18825 1-462): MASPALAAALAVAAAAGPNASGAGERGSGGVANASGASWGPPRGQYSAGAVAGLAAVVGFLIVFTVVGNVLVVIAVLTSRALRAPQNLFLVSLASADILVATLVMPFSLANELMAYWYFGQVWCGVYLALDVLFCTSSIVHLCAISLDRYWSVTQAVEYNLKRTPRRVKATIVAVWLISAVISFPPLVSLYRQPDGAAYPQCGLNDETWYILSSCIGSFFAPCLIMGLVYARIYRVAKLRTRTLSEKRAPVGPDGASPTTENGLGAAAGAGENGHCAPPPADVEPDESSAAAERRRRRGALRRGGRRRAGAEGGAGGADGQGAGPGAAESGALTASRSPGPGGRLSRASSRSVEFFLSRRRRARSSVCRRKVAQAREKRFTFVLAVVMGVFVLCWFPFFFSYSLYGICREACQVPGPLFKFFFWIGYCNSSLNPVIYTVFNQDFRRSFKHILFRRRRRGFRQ

α2A [5] = molecular target: T4, α2A (Homo sapiens, UniProt P08913); assay: Functional Potency (IC50) on Human Receptors: α2A; format: biochemical; conditions: human receptor
T4 sequence (P08913 1-465): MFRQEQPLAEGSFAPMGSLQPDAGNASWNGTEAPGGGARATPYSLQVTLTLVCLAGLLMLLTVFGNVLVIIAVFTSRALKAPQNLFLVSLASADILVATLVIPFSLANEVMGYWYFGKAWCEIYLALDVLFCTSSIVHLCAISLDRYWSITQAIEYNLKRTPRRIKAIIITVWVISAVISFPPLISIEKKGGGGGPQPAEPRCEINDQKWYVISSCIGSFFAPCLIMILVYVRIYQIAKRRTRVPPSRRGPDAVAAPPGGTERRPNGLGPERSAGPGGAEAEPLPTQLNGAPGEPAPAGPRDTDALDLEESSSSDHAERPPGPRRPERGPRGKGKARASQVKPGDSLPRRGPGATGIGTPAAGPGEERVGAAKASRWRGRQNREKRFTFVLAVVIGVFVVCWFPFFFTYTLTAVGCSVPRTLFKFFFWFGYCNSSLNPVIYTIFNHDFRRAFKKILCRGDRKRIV

D3 = D3 (Homo sapiens, UniProt P35462); assay: In Vitro Affinity (Ki) on Human Receptors: D3; format: binding; conditions: human receptor
D2 [6] = molecular target: T5, D2 (Homo sapiens, UniProt P14416); assay: Functional Potency (IC50) on Human Receptors: D2; format: biochemical; conditions: human receptor
hERG [7] = molecular target: T6, hERG (Homo sapiens, UniProt Q12809); assay: Functional Potency (IC50) on Human Receptors: hERG; format: biochemical
5HT2A [8] = molecular target: T7, 5HT2A (Homo sapiens, UniProt P28223); assay: Functional Potency (IC50) on Human Receptors: 5HT2A; format: biochemical; conditions: human receptor
5HT1A (native) = molecular target: T8, 5HT1A (native) (Homo sapiens, UniProt P08908); assay: In Vitro Affinity (Ki) on Human Receptors: 5HT1A (native); format: binding; conditions: human receptor
T8 construct: 5HT1A (native) 8 nM
T8 sequence (P08908 1-422): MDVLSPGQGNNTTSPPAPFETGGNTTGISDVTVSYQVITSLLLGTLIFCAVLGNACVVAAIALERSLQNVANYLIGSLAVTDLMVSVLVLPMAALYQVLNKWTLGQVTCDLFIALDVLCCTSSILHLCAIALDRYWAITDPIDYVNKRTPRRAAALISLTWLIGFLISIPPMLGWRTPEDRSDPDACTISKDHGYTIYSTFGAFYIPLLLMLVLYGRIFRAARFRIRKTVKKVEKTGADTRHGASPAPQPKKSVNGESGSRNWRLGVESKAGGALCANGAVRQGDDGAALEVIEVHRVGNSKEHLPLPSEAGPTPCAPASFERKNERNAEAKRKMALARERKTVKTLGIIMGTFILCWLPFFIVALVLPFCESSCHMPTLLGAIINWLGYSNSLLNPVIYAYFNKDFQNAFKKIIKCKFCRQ

α2A [9] = molecular target: T4, α2A; assay: In Vitro Affinity (Ki) on Human Receptors: α2A; format: binding; conditions: human receptor
D2 [10] = molecular target: T5, D2; assay: In Vitro Affinity (Ki) on Human Receptors: D2; format: binding; conditions: human receptor
H1 [11] = molecular target: T9, H1 (Homo sapiens, UniProt P35367); assay: Functional Potency (IC50) on Human Receptors: H1; format: biochemical; conditions: human receptor
5HT1A = molecular target: T10, 5HT1A (Homo sapiens, UniProt P08908); assay: Functional Potency on Human Receptors: 5HT1A; format: biochemical; conditions: human receptor
T10 sequence (P08908 1-422): T8 sequence (P08908 1-422)

D1 [12] = molecular target: T2, D1; assay: In Vitro Affinity (Ki) on Human Receptors: D1; format: binding; conditions: human receptor
hERG [13] = molecular target: T6, hERG; assay: In Vitro Affinity (Ki) on Human Receptors: hERG; format: binding
α1A = molecular target: T11, α1A (Homo sapiens, UniProt P35348); assay: In Vitro Affinity (Ki) on Human Receptors: α1A; format: binding; conditions: human receptor
T11 sequence (P35348 1-466): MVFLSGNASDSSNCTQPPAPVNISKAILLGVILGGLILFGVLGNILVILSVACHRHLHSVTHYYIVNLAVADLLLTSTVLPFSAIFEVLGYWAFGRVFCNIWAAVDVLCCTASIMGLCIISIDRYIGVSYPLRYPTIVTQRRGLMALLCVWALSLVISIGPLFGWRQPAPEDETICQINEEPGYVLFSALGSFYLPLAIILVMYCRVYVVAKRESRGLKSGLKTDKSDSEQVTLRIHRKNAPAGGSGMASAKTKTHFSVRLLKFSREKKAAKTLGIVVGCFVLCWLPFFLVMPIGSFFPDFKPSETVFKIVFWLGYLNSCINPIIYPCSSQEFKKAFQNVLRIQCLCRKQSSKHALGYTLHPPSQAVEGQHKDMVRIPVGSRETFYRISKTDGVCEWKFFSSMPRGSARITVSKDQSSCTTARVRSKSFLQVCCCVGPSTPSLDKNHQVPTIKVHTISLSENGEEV

α2C [14] = molecular target: T3, α2C; assay: In Vitro Affinity (Ki) on Human Receptors: α2C; format: binding; conditions: human receptor
5HT2A [15] = molecular target: T7, 5HT2A; assay: In Vitro Affinity (Ki) on Human Receptors: 5HT2A; format: binding; conditions: human receptor
α1D = molecular target: T12, α1D (Homo sapiens, UniProt P25100); assay: In Vitro Affinity (Ki) on Human Receptors: α1D; format: binding; conditions: human receptor
T12 sequence (P25100 1-572): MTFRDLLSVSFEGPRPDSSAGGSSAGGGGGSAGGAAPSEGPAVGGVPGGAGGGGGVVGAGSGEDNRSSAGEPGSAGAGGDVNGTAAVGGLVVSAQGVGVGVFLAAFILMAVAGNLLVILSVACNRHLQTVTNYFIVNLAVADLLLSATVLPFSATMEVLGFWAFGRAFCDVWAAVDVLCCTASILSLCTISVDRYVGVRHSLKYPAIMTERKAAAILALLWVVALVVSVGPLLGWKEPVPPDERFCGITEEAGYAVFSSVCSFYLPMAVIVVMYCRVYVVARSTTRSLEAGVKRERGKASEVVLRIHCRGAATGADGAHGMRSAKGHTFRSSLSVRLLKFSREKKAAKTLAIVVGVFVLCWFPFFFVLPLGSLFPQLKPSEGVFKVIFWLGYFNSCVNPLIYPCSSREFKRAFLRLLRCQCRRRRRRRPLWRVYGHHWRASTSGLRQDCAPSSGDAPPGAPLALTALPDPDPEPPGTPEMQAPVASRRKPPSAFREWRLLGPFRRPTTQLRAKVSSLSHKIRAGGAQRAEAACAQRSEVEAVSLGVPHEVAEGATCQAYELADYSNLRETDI

H1 [16] = molecular target: T9, H1; assay: In Vitro Affinity (Ki) on Human Receptors: H1; format: binding; conditions: human receptor

T6 sequence (Q12809 whole entry): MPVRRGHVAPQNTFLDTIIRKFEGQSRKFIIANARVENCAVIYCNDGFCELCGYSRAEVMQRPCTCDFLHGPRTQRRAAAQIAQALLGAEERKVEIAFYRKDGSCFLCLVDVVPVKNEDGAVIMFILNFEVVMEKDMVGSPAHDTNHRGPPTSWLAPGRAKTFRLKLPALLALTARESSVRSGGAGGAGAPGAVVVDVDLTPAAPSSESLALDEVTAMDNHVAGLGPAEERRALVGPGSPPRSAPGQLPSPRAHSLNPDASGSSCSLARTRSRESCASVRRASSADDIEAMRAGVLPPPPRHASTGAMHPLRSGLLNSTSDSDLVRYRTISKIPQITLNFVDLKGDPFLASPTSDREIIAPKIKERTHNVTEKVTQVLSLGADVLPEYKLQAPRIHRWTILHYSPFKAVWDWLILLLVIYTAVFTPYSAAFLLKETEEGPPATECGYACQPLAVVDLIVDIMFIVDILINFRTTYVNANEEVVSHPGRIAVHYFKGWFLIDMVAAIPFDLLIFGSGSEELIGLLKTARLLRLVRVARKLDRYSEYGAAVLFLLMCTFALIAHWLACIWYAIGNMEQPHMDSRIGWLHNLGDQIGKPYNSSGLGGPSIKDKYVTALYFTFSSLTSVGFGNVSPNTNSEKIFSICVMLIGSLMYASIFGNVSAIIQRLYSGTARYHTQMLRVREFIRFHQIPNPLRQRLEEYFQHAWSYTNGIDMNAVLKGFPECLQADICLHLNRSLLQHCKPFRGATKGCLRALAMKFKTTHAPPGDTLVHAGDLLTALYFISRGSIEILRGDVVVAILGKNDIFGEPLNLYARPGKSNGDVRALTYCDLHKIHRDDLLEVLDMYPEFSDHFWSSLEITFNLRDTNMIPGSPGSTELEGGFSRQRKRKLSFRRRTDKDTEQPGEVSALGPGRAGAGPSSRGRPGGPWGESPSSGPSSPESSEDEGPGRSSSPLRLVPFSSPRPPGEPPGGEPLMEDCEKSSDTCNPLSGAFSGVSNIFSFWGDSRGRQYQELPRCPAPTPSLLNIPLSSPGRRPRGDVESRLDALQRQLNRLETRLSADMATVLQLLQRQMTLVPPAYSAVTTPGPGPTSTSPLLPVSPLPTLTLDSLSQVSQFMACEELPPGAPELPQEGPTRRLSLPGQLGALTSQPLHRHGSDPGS
T1 sequence (P28335 33-458): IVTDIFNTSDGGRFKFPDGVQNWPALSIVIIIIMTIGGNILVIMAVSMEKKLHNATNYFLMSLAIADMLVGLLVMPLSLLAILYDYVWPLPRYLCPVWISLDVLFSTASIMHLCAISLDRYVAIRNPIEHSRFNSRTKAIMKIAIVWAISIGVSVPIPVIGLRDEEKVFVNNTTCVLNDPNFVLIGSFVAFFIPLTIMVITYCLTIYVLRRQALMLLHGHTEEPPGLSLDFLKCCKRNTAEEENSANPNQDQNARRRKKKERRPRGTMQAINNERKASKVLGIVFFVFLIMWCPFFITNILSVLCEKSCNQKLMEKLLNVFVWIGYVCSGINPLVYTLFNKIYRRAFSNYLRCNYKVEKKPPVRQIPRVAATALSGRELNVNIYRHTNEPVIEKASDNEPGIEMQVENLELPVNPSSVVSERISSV
T2 sequence (P21728 whole entry): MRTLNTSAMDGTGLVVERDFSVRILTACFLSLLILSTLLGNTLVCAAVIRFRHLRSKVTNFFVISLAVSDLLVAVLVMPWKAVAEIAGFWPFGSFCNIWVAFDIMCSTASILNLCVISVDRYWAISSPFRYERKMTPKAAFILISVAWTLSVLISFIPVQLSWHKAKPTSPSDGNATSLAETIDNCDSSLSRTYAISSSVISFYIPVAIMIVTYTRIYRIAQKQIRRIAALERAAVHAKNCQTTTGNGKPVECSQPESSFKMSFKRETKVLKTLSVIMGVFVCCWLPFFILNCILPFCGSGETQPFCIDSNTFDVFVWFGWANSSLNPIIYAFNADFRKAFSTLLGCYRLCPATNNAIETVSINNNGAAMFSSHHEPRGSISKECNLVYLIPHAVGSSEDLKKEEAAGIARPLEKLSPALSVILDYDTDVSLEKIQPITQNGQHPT
T9 sequence (P35367 whole entry): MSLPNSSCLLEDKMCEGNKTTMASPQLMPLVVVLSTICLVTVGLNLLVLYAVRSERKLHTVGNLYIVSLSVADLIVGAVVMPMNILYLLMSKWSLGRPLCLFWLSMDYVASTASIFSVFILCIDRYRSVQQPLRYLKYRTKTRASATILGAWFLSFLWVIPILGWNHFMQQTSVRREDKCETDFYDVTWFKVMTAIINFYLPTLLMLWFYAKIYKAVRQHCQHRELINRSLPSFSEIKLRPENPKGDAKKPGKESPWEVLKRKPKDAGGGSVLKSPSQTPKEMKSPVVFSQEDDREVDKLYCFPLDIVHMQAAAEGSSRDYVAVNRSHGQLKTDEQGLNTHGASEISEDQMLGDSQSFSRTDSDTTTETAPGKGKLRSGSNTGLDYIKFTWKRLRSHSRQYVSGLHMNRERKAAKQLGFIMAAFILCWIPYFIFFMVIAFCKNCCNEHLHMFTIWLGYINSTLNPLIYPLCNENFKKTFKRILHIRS
T7 sequence (P28223 whole entry): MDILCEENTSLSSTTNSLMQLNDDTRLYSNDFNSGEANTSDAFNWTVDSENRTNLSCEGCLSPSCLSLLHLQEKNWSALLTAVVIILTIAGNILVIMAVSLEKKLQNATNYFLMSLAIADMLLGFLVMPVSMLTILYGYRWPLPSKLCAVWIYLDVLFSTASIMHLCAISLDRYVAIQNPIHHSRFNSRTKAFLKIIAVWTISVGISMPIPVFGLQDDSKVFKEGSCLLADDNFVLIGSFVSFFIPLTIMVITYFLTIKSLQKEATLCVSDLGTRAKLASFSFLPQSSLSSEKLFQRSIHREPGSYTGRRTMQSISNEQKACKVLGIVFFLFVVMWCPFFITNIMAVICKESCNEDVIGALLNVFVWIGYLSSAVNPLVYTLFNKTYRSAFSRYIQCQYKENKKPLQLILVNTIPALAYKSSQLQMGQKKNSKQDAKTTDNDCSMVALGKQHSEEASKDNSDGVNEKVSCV
T5 sequence (P14416 whole entry): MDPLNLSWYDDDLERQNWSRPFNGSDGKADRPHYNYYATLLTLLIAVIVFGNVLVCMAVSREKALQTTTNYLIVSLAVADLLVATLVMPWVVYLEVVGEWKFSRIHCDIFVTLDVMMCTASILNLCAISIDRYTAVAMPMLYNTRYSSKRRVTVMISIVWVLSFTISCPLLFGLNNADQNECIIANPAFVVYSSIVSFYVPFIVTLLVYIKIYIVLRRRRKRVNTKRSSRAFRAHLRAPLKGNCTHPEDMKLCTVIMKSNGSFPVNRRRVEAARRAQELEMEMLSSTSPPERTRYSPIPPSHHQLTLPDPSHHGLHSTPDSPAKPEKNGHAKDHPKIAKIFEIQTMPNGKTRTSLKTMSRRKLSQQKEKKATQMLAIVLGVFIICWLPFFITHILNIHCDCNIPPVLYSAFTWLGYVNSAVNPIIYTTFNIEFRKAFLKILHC
Sequence of D3 (P35462 whole entry): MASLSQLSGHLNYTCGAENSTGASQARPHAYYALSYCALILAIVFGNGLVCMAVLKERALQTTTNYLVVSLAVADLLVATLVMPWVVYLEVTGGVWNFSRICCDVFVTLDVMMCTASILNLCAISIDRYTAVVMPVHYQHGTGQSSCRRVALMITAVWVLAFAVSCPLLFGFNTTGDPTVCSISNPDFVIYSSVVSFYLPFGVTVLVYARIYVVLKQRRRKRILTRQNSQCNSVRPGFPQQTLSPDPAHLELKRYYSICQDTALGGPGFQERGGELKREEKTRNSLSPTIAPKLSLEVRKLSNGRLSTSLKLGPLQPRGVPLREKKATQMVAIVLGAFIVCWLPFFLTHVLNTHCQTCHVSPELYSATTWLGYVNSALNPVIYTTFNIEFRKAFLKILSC

For `C[C@@]1(O)CC2CC1[C@@H]1C(=O)N(CC3CCCC[C@H]3CN3CCN(c4nsc5ccccc45)CC3)C(=O)[C@H]21` (stereo in doubt) [(3aS,4S,5R,7S,7aR)-2-[((1R,2R)-2-{[4-(1,2-benzisothiazol-3-yl)piperazin-1-yl]methyl}cyclohexyl)methyl]-5-hydroxy-5-methylhexahydro-1H-4,7-methanoisoindole-1,3-dione], the Ki (5HT2C [1]) was 16 nM, the IC50 (D1 [2]) was 1650 nM and the IC50 (5HT2C [3]) was 1710 nM. The IC50 (α2C [4]) was 160 nM, the IC50 (α2A [5]) was 1220 nM and the Ki (D3) was 2 nM. The IC50 (D2 [6]) was 25 nM, the IC50 (hERG [7]) was 4000 nM and the IC50 (5HT2A [8]) was 32 nM. For the same compound, the Ki (5HT1A (native)) was 8 nM, the Ki (α2A [9]) was 59 nM and the Ki (D2 [10]) was 1 nM. The IC50 (H1 [11]) was 3100 nM, the EC50 (5HT1A) was 98 nM and the “Functional Potency 5HT1A % max” value (5HT1A; max response) was 77%. It also gave a Ki (D1 [12]) of 457 nM, a Ki (hERG [13]) of 644 nM and a Ki (α1A) of 31 nM. It also gave a Ki (α2C [14]) of 9 nM, a Ki (5HT2A [15]) of under 10 nM and a Ki (α1D) of 82 nM. The Ki (H1 [16]) was 371 nM.
